Measured values published in patent US9511080B2, “Okadaella gastrococcus and cancer” (Okada Medical Services Pty Ltd, priority 2009, dated 2016).

Tests used:
[1] = tested on: Okadaella gastrococcus (Og) isolates; assay: In vitro antibiotic sensitivity of Og (E-tests and diffusion disc tests); format: cell-based; conditions: for Og can be treated using antibiotic (in vitro assays): 25 Og isolates from gastric mucosal biopsy specimens
Protocol: Twenty-five Og isolates were obtained from gastric mucosal biopsy specimens. E-tests and diffusion disc tests were performed under microaerophilic condition (Oxygen 5%, CO2 10%, and Nitrogen 85%) utilizing. 5% horse blood agar, except metronidazole which was tested under anaerobic condition. Antibiotic sensitivity was read 72 hours after incubation. Randomly selected isolates were also examined under TEM to confirm the ultrastructure of Og. Results: Og was sensitive to various antibiotics, in particular to the penicillins, the cephalosporins, the quinolones, and chloramphenicol.

[2] = tested on: intestinal metaplasia of the gastric mucosa; conditions: co-administered with Hp eradication therapy (Walker, 2003); cited from earlier work

Row | SMILES | Antibiotic sensitivity of Og ([1]; E-tests and diffusion disc tests, microaerophilic, 5% horse blood agar, read 72 hours after incubation) | Og can be treated using antibiotic (in vitro assays) [1] | Effect on intestinal metaplasia of the gastric mucosa [2]
1 | O=C(N[C@H](CO)[C@H](O)c1ccc([N+](=O)[O-])cc1)C(Cl)Cl [chloramphenicol] | sensitive | can be treated | 
2 | O=C(O)c1cn(C2CC2)c2cc(N3CCNCC3)c(F)cc2c1=O [ciprofloxacin] |  | can be treated | 
3 | CC1(C)S[C@@H]2[C@H](NC(=O)[C@H](N)c3ccccc3)C(=O)N2[C@H]1C(=O)O [ampicillin] |  | can be treated | 
4 | O=C1O[C@H]([C@@H](O)CO)C(O)=C1O [ascorbic acid] |  |  | significantly resolved the intestinal metaplasia
5 | CO/N=C(\C(=O)N[C@@H]1C(=O)N2C(C(=O)O)=C(COC(C)=O)CS[C@H]12)c1csc(N)n1 [cefotaxime] |  | can be treated | 
6 | COc1c(N2CCNC(C)C2)c(F)cc2c(=O)c(C(=O)O)cn(C3CC3)c12 (stereo not shown) [gatifloxacin] |  | can be treated | 
